#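 The compound was tested at five concentrations on cells cultured in 96-well plates, with a 48-hour exposure period. At the GI50, growth is halved. TGI is the concentration that stops growth completely.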
# Tests used:
# Assay in all cases: NCI anticancer screen, dose series, 48 h
# CCRF-CEM leukemia = system: CCRF-CEM leukemia
# SF-295 CNS = system: SF-295 CNS
# SK-MEL-2 melanoma = system: SK-MEL-2 melanoma
# OVCAR-4 ovarian = system: OVCAR-4 ovarian
# MDA-MB-231 breast = system: MDA-MB-231 breast
# 786-0 renal = system: 786-0 renal
# RPMI-8226 leukemia = system: RPMI-8226 leukemia
# CAKI-1 renal = system: CAKI-1 renal
# TK-10 renal = system: TK-10 renal
# SK-MEL-5 melanoma = system: SK-MEL-5 melanoma
# DU-145 prostate = system: DU-145 prostate
# SNB-19 CNS = system: SNB-19 CNS
# PC-3 prostate = system: PC-3 prostate
# HL-60(TB) leukemia = system: HL-60(TB) leukemia
# EKVX NSCLC = system: EKVX NSCLC
# COLO 205 colon = system: COLO 205 colon
# MALME-3M melanoma = system: MALME-3M melanoma
# MOLT-4 leukemia = system: MOLT-4 leukemia
# SW-620 colon = system: SW-620 colon
# HS 578T breast = system: HS 578T breast
# BT-549 breast = system: BT-549 breast
# OVCAR-5 ovarian = system: OVCAR-5 ovarian
# KM12 colon = system: KM12 colon
# UACC-62 melanoma = system: UACC-62 melanoma
# HOP-92 NSCLC = system: HOP-92 NSCLC
# K-562 leukemia = system: K-562 leukemia
# ACHN renal = system: ACHN renal
# LOX IMVI melanoma = system: LOX IMVI melanoma
# OVCAR-3 ovarian = system: OVCAR-3 ovarian
# U251 CNS = system: U251 CNS
# SK-MEL-28 melanoma = system: SK-MEL-28 melanoma
# A549 NSCLC = system: A549 NSCLC
# NCI-H226 lung = system: NCI-H226 lung
# NCI-H23 lung = system: NCI-H23 lung
# UO-31 renal = system: UO-31 renal
# MDA-MB-435 = system: MDA-MB-435
# MDA-MB-468 breast = system: MDA-MB-468 breast
# OVCAR-8 ovarian = system: OVCAR-8 ovarian
# NCI-H522 lung = system: NCI-H522 lung
# UACC-257 melanoma = system: UACC-257 melanoma
# NCI-H460 lung = system: NCI-H460 lung
# SF-539 CNS = system: SF-539 CNS
# HCT-116 colon = system: HCT-116 colon
# HT29 colon = system: HT29 colon
# SF-268 CNS = system: SF-268 CNS
# SK-OV-3 ovarian = system: SK-OV-3 ovarian
# HCC-2998 colon = system: HCC-2998 colon
# RXF 393 renal = system: RXF 393 renal
# M14 melanoma = system: M14 melanoma
# SR leukemia = system: SR leukemia
# T-47D breast = system: T-47D breast
# SNB-75 CNS = system: SNB-75 CNS
# IGROV1 ovarian = system: IGROV1 ovarian
# HCT-15 colon = system: HCT-15 colon
# MCF7 breast = system: MCF7 breast
# A498 renal = system: A498 renal
# SN12C renal = system: SN12C renal
# HOP-62 NSCLC = system: HOP-62 NSCLC
smiles,measurement,setting,value
CN1CCN(Cc2ccc(C(=O)Nc3cccc(Nc4ccc5cc(O)ccc5n4)c3)cc2C(F)(F)F)CC1,GI50,CCRF-CEM leukemia,3.48 µM
same,TGI,CCRF-CEM leukemia,17.2 µM
same,GI50,SF-295 CNS,2.33 µM
same,TGI,SF-295 CNS,5.64 µM
same,GI50,SK-MEL-2 melanoma,13.5 µM
same,TGI,SK-MEL-2 melanoma,26.4 µM
same,GI50,OVCAR-4 ovarian,11.2 µM
same,TGI,OVCAR-4 ovarian,23.8 µM
same,GI50,MDA-MB-231 breast,2.54 µM
same,TGI,MDA-MB-231 breast,7.9 µM
same,GI50,786-0 renal,3.13 µM
same,TGI,786-0 renal,10.9 µM
same,GI50,RPMI-8226 leukemia,2.65 µM
same,TGI,RPMI-8226 leukemia,7.1 µM
same,GI50,CAKI-1 renal,11.9 µM
same,TGI,CAKI-1 renal,24.3 µM
same,GI50,TK-10 renal,21.4 µM
same,TGI,TK-10 renal,35.8 µM
same,GI50,SK-MEL-5 melanoma,2.35 µM
same,TGI,SK-MEL-5 melanoma,6.4 µM
same,GI50,DU-145 prostate,10.5 µM
same,TGI,DU-145 prostate,22.3 µM
same,GI50,SNB-19 CNS,13.7 µM
same,TGI,SNB-19 CNS,27.5 µM
same,GI50,PC-3 prostate,4.68 µM
same,TGI,PC-3 prostate,20.1 µM
same,GI50,HL-60(TB) leukemia,2.58 µM
same,TGI,HL-60(TB) leukemia,4.86 µM
same,GI50,EKVX NSCLC,14.2 µM
same,TGI,EKVX NSCLC,28.3 µM
same,GI50,COLO 205 colon,10.2 µM
same,TGI,COLO 205 colon,23.8 µM
same,GI50,MALME-3M melanoma,1.59 µM
same,TGI,MALME-3M melanoma,3.15 µM
same,GI50,MOLT-4 leukemia,3.52 µM
same,TGI,MOLT-4 leukemia,9.49 µM
same,GI50,SW-620 colon,2.3 µM
same,TGI,SW-620 colon,4.57 µM
same,GI50,HS 578T breast,4.17 µM
same,TGI,HS 578T breast,35.3 µM
same,GI50,BT-549 breast,12.2 µM
same,TGI,BT-549 breast,25.4 µM
same,GI50,OVCAR-5 ovarian,14.2 µM
same,TGI,OVCAR-5 ovarian,27.7 µM
same,GI50,KM12 colon,3.17 µM
same,TGI,KM12 colon,10.9 µM
same,GI50,UACC-62 melanoma,15.4 µM
same,TGI,UACC-62 melanoma,29.2 µM
same,GI50,HOP-92 NSCLC,3.39 µM
same,TGI,HOP-92 NSCLC,17 µM
same,GI50,K-562 leukemia,1.88 µM
same,TGI,K-562 leukemia,4.51 µM
same,GI50,ACHN renal,7.59 µM
same,TGI,ACHN renal,23.1 µM
same,GI50,LOX IMVI melanoma,1.73 µM
same,TGI,LOX IMVI melanoma,3.19 µM
same,GI50,OVCAR-3 ovarian,11.2 µM
same,TGI,OVCAR-3 ovarian,23.4 µM
same,GI50,U251 CNS,2.17 µM
same,TGI,U251 CNS,6.49 µM
same,GI50,SK-MEL-28 melanoma,1.79 µM
same,TGI,SK-MEL-28 melanoma,3.32 µM
same,GI50,A549 NSCLC,8.7 µM
same,TGI,A549 NSCLC,22.3 µM
same,GI50,NCI-H226 lung,16 µM
same,TGI,NCI-H226 lung,33.3 µM
same,GI50,NCI-H23 lung,13.9 µM
same,TGI,NCI-H23 lung,28.5 µM
same,GI50,UO-31 renal,13.4 µM
same,TGI,UO-31 renal,27.3 µM
same,GI50,MDA-MB-435,8.53 µM
same,TGI,MDA-MB-435,20.8 µM
same,GI50,MDA-MB-468 breast,2.23 µM
same,TGI,MDA-MB-468 breast,6.47 µM
same,GI50,OVCAR-8 ovarian,13.2 µM
same,TGI,OVCAR-8 ovarian,28.4 µM
same,GI50,NCI-H522 lung,4.82 µM
same,TGI,NCI-H522 lung,17.5 µM
same,GI50,UACC-257 melanoma,7.35 µM
same,TGI,UACC-257 melanoma,20.6 µM
same,GI50,NCI-H460 lung,3.84 µM
same,TGI,NCI-H460 lung,15.2 µM
same,GI50,SF-539 CNS,1.98 µM
same,TGI,SF-539 CNS,12.2 µM
same,GI50,HCT-116 colon,3.93 µM
same,TGI,HCT-116 colon,15 µM
same,GI50,HT29 colon,3.37 µM
same,TGI,HT29 colon,12 µM
same,GI50,SF-268 CNS,10.4 µM
same,TGI,SF-268 CNS,23.8 µM
same,GI50,SK-OV-3 ovarian,16.5 µM
same,TGI,SK-OV-3 ovarian,30.5 µM
same,GI50,HCC-2998 colon,2.39 µM
same,TGI,HCC-2998 colon,5.22 µM
same,GI50,RXF 393 renal,3.55 µM
same,TGI,RXF 393 renal,15.7 µM
same,GI50,M14 melanoma,9.06 µM
same,TGI,M14 melanoma,23.5 µM
same,GI50,SR leukemia,2.68 µM
same,TGI,SR leukemia,8.5 µM
same,GI50,T-47D breast,14.6 µM
same,TGI,T-47D breast,32.2 µM
same,GI50,SNB-75 CNS,0.656 µM
same,TGI,SNB-75 CNS,15.3 µM
same,GI50,IGROV1 ovarian,16.6 µM
same,TGI,IGROV1 ovarian,31.3 µM
same,GI50,HCT-15 colon,2.09 µM
same,TGI,HCT-15 colon,4.49 µM
same,GI50,MCF7 breast,2.46 µM
same,TGI,MCF7 breast,7.31 µM
same,GI50,A498 renal,22.5 µM
same,TGI,A498 renal,37.1 µM
same,GI50,SN12C renal,14.1 µM
same,TGI,SN12C renal,27.6 µM
same,GI50,HOP-62 NSCLC,12.1 µM
same,TGI,HOP-62 NSCLC,24.9 µM

# — PubChem BioAssay (NCI)
